From the CheMixHub viscosity set

Assay: xn = mol fraction of the nth substance listed

CN(C)CCO + CC(=O)c1ccccc1
viscosity [mPa·s], 101.3 kPa
Conditions | x2 = 0.0879 | x2 = 0.1782 | x2 = 0.2709 | x2 = 0.3663 | x2 = 0.4644 | x2 = 0.5654 | x2 = 0.6693 | x2 = 0.7762 | x2 = 0.8864
303.15 K | 2.331 | 2.243 | 2.155 | 2.067 | 1.98 | 1.892 | 1.804 | 1.716 | 1.628
313.15 K | 1.952 | 1.882 | 1.811 | 1.741 | 1.67 | 1.6 | 1.529 | 1.459 | 1.388
323.15 K | 1.689 | 1.644 | 1.6 | 1.555 | 1.51 | 1.465 | 1.42 | 1.375 | 1.33

O=C1OCCO1 + O
298.15 K, 101 kPa
Conditions | viscosity [mPa·s]
x1 = 0.0166 | 0.955
x1 = 0.0221 | 0.968
x1 = 0.0415 | 1.038
x1 = 0.0635 | 1.096
x1 = 0.0897 | 1.172
x1 = 0.1194 | 1.253
x1 = 0.1403 | 1.309
x1 = 0.1625 | 1.377
x1 = 0.2345 | 1.519
x1 = 0.3229 | 1.647
x1 = 0.3784 | 1.704
x1 = 0.4412 | 1.751
x1 = 0.5409 | 1.831
x1 = 0.6443 | 1.898

O=C(O)CO + OC[C@@H](O)[C@H](O)[C@@H](O)CO
101.33 kPa, x2 = 0.25
Conditions | viscosity [mPa·s]
303.15 K | 937
313.15 K | 446.3
323.15 K | 208.9

CCOC(=O)CC + ClC(Cl)C(Cl)Cl
viscosity [mPa·s], 101.3 kPa
Conditions | 308.15 K | 318.15 K
x1 = 0.0486 | 1.333 | 1.203
x1 = 0.0999 | 1.261 | 1.128
x1 = 0.2025 | 1.127 | 0.996
x1 = 0.2997 | 1.013 | 0.888
x1 = 0.3983 | 0.922 | 0.794
x1 = 0.5003 | 0.817 | 0.71
x1 = 0.5986 | 0.714 | 0.64
x1 = 0.7023 | 0.617 | 0.576
x1 = 0.801 | 0.583 | 0.523
x1 = 0.9018 | 0.521 | 0.476
x1 = 0.951 | 0.493 | 0.455

O=C([O-])CC(O)(CC(=O)[O-])C(=O)[O-].[NH3+]CCO.[NH3+]CCO.[NH3+]CCO + O
viscosity [mPa·s], 101 kPa
Conditions | x1 = 0.0053 | x1 = 0.012 | x1 = 0.02 | x1 = 0.031 | x1 = 0.046 | x1 = 0.067 | x1 = 0.16
293.15 K | 1.211 | 1.575 | 2.21 | 3.385 | 6.303 | 12.36 | 106.7
303.15 K | 0.9345 | 1.18 | 1.608 | 2.382 | 4.312 | 8.015 | 66.19
313.15 K | 0.7529 | 0.9296 | 1.227 | 1.786 | 3.032 | 5.371 | 39.23
323.15 K | 0.6242 | 0.7501 | 0.9638 | 1.351 | 2.228 | 3.77 | 21.96

Cc1ccccc1O + c1ccncc1
viscosity [mPa·s], 101 kPa
Conditions | x1 = 0.09109 | x1 = 0.1923 | x1 = 0.2702 | x1 = 0.3823 | x1 = 0.4812 | x1 = 0.5958 | x1 = 0.7186 | x1 = 0.8145 | x1 = 0.8918
293.15 K | 1.176 | 1.556 | 1.983 | 2.962 | 4.455 | 6.845 | 9.26 | 10.04 | 10.01
303.15 K | 1.022 | 1.35 | 1.724 | 2.56 | 3.625 | 4.935 | 6.23 | 6.565 | 6.45
313.15 K | 0.886 | 1.148 | 1.436 | 2.045 | 2.75 | 3.575 | 4.29 | 4.415 | 4.325

C=CC(=O)OCCCC + C1CCOC1
viscosity [mPa·s], 101 kPa
Conditions | 293.15 K | 298.15 K | 303.15 K | 308.15 K | 313.15 K | 318.15 K
x2 = 0.0712 | 0.8609 | 0.8036 | 0.7505 | 0.7019 | 0.6569 | 0.6143
x2 = 0.1406 | 0.8246 | 0.7708 | 0.721 | 0.6751 | 0.6321 | 0.5913
x2 = 0.208 | 0.7908 | 0.7403 | 0.6935 | 0.65 | 0.609 | 0.5698
x2 = 0.2779 | 0.7572 | 0.71 | 0.6661 | 0.6249 | 0.5858 | 0.5482
x2 = 0.3685 | 0.7159 | 0.6727 | 0.6323 | 0.594 | 0.5571 | 0.5213
x2 = 0.4339 | 0.6875 | 0.6471 | 0.609 | 0.5727 | 0.5374 | 0.5028
x2 = 0.4996 | 0.6603 | 0.6225 | 0.5867 | 0.5522 | 0.5182 | 0.4848
x2 = 0.5642 | 0.6347 | 0.5995 | 0.5657 | 0.5328 | 0.5002 | 0.4677
x2 = 0.6426 | 0.6053 | 0.5729 | 0.5415 | 0.5104 | 0.4792 | 0.4478
x2 = 0.7208 | 0.5778 | 0.548 | 0.5187 | 0.4893 | 0.4592 | 0.4288
x2 = 0.7956 | 0.553 | 0.5256 | 0.4981 | 0.4701 | 0.4411 | 0.4115
x2 = 0.8642 | 0.5316 | 0.5063 | 0.4803 | 0.4534 | 0.4253 | 0.3964
x2 = 0.9322 | 0.5117 | 0.4882 | 0.4637 | 0.4378 | 0.4103 | 0.3819

ClCC(Cl)Cl + CC(C)=O
298.15 K, 101 kPa
Conditions | viscosity [mPa·s]
x2 = 0.212 | 0.91
x2 = 0.366 | 0.799
x2 = 0.497 | 0.677
x2 = 0.611 | 0.577
x2 = 0.704 | 0.509
x2 = 0.779 | 0.456
x2 = 0.837 | 0.411
x2 = 0.949 | 0.347

C=CC(=O)OC + CCCCCCCCCC
viscosity [mPa·s], 100 kPa
Conditions | x1 = 0.1092 | x1 = 0.2047 | x1 = 0.3019 | x1 = 0.4034 | x1 = 0.5015 | x1 = 0.5969 | x1 = 0.6987 | x1 = 0.7998 | x1 = 0.8966
303.15 K | 0.733 | 0.683 | 0.638 | 0.595 | 0.561 | 0.532 | 0.506 | 0.483 | 0.462
308.15 K | 0.668 | 0.625 | 0.585 | 0.548 | 0.519 | 0.495 | 0.474 | 0.456 | 0.437
313.15 K | 0.644 | 0.604 | 0.566 | 0.53 | 0.501 | 0.478 | 0.457 | 0.438 | 0.42
